Results on 29 compounds are retold here after patent US11111251B2, “Positive allosteric modulators of the muscarinic acetylcholine receptor M1” (Vanderbilt University, priority 2016, dated 2021).

Where two headings read alike, the source gives them in different places.

The target of this assay is T1, human mAChR M1 (Homo sapiens, UniProt P11229).
T1 sequence (P11229 1-460): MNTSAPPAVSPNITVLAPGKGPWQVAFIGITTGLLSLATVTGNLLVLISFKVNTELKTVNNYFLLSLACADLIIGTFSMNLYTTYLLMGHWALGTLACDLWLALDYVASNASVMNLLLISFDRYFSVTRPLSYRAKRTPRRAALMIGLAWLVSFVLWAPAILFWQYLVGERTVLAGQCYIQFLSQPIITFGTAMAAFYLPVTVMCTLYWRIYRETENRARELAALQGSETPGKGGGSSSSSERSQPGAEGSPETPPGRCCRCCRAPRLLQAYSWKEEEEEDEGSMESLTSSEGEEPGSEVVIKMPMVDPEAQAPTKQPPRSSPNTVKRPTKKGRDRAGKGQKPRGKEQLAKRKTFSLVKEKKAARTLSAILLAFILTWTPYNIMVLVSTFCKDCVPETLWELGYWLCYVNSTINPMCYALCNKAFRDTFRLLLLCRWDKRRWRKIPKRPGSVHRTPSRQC
Put plainly: mAChR M1 cell-based functional assay: calcium mobilization, positive allosteric modulator mode (increase in EC20 acetylcholine response). To be noted: for Emax: read-out: Human M1 Emax (%). The method in brief: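 PAM potency reflects the concentration-dependent increase in calcium response to an EC20 acetylcholine challenge, given 144 s into a 300 s read after compound addition at 4 s (EC80 follows at 230 s). Cells were hM1-expressing CHO-K1, loaded 50 min with Fluo-4 AM. Curves used 11 points at 1:3 dilutions and four-parameter logistic fitting.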
(Calcium flux is commonly read through the fluorescence of an indicator in the cells.)

Setting [1] is: Table 1, mAChR M1 cell-based functional assay, PAM mode, species not given, read-out: EC50.
The mark [2] stands for this setting: Table 2, human M1, read-out: Human M1 EC50.

Consider `Cc1ccc(Cc2cc(C(=O)N[C@H]3CCC[C@@H]3O)nc3ccsc23)cn1` [Compound 42, N-[(1S,2S)-2-hydroxycyclopentyl]-7-[(6-methyl-3-pyridyl)methyl]thieno[3,2-b]pyridine-5-carboxamide], for which the EC50 (commonly the concentration at which the effect is half-maximal) under setting [1] was 360 nM. Turning to `Cn1ccc(-c2ccc(Cc3cc(C(=O)NC4CCOCC4)nc4ccsc34)cn2)n1` [Compound 350, 7-[[6-(1-methylpyrazol-3-yl)-3-pyridyl]methyl]-N-tetrahydropyran-4-yl-thieno[3,2-b]pyridine-5-carboxamide], the EC50 under setting [2] was 80.5 nM. The Emax (usually the size of the effect at its maximum, as opposed to the concentration needed) (Table 2, human M1) came to 70.5%. `Cn1ccc(-c2ccc(Cc3cc(C(=O)NC4CC5(COC5)C4)nc4ccsc34)cn2)n1` [Compound 351, 7-[[6-(1-methylpyrazol-3-yl)-3-pyridyl]methyl]-N-(2-oxaspiro[3.3]heptan-6-yl)thieno[3,2-b]pyridine-5-carboxamide]: the EC50 under setting [2] was 143 nM. Besides, the Emax (Table 2, human M1) stood at 89.9%. In the case of `Cc1csc2c(Cc3ccc(-c4ccn(C)n4)cc3)cc(C(=O)NC3COC3)nc12` [Compound 307, 3-methyl-7-[[4-(1-methylpyrazol-3-yl)phenyl]methyl]-N-(oxetan-3-yl)thieno[3,2-b]pyridine-5-carboxamide], under setting [2], the EC50 turned out to be 3440 nM. In addition, the maximum response (Emax) (Table 2, human M1) was 67.2%. For `Cn1cc(-c2ccc(Cc3cc(C(=O)N[C@H]4COCC[C@@H]4O)nc4ccsc34)cn2)cn1` [Compound 62, N-[(3S,4S)-4-hydroxytetrahydropyran-3-yl]-7-[[6-(1-methylpyrazol-4-yl)-3-pyridyl]methyl]thieno[3,2-b]pyridine-5-carboxamide], the 50% effective concentration (EC50) under setting [2] is greater than 10000 nM. Moreover, the maximal response (Emax) (Table 2, human M1) came out at 41.2%.

Take `O=C(NC1COC1)c1cc(Cc2ccc(-c3cscn3)cc2)c2sccc2n1` [Compound 202, N-(oxetan-3-yl)-7-[(4-thiazol-4-ylphenyl)methyl]thieno[3,2-b]pyridine-5-carboxamide]: under setting [2], the EC50 was determined as 1370 nM. Further, the Emax (Table 2, human M1) was determined as 63.7%.

Regarding `Cn1cc(-c2ccc(Cc3cc(C(=O)NC4CC(F)(F)C4)nc4ccsc34)cn2)cn1` [Compound 345, N-(3,3-difluorocyclobutyl)-7-[[6-(1-methylpyrazol-4-yl)-3-pyridyl]methyl]thieno[3,2-b]pyridine-5-carboxamide], under setting [2], the EC50 was determined as 203 nM. Besides, the maximal effect (Emax) (Table 2, human M1) was found to be 74.5%. Regarding `Cn1ccc(-c2ccc(Cc3cc(C(=O)NC4CCOCC4(C)C)nc4ccn(C)c34)cn2)n1` (centres unmarked) [Compound 505, N-(3,3-dimethyltetrahydropyran-4-yl)-1-methyl-7-[[6-(1-methylpyrazol-3-yl)-3-pyridyl]methyl]pyrrolo[3,2-b]pyridine-5-carboxamide;], the concentration giving a half-maximal response (EC50) under setting [2] was 752 nM. Moreover, where the note is “Table 2, human M1”, the Emax worked out at 79.4%. Consider `O=C(NC1CC(F)(F)C1)c1ccc(Cc2cc(C(=O)NC3CC(F)(F)C3)nc3ccsc23)cc1` [Compound 408, N-(3,3-difluorocyclobutyl)-7-[[4-[(3,3-difluorocyclobutyl)carbamoyl]phenyl]methyl]thieno[3,2-b]pyridine-5-carboxamide], for which the EC50 under setting [2] was 397 nM. The Emax (Table 2, human M1) is 45%. As for `O=C(N[C@@H]1CCCCC[C@H]1O)c1cc(Cc2ccc(C(F)(F)F)nc2)c2sccc2n1` [Compound 94], the 50% effective concentration (EC50) under setting [2] was 1250 nM. For the same compound, the maximal response (Emax) (Table 2, human M1) is 84.6%. For the compound `CC1CC(NC(=O)c2cc(Cc3ccc(-c4ccn(C)n4)nc3)c3sccc3n2)CC(C)O1` (centres unmarked) [Compound 377, N-(2,6-dimethyltetrahydropyran-4-yl)-7-[[6-(1-methylpyrazol-3-yl)-3-pyridyl]methyl]thieno[3,2-b]pyridine-5-carboxamide], the 50% effective concentration (EC50) under setting [2] was found to be 412 nM. The Emax (Table 2, human M1) was determined as 58.7%. Take `Cc1ccc(Cc2cc(C(=O)N[C@@H]3CCCCC[C@H]3O)nc3c(C)csc23)cn1` [Compound 107]: the EC50 under setting [2] is 474 nM. Further, the Emax (Table 2, human M1) came to 88.5%. On the same counts, the results for `Cn1cc(-c2ccc(Cc3cc(C(=O)N[C@H]4CC[C@@H]4O)nc4ccsc34)cn2)cn1` [Compound 328, N-[(1S,2S)-2-hydroxycyclobutyl]-7-[[6-(1-methylpyrazol-4-yl)-3-pyridyl]methyl]thieno[3,2-b]pyridine-5-carboxamide] are 197 nM and 80.5%.

Regarding `CN1CCC(NC(=O)c2cc(Cc3ccc(-n4cccn4)cc3)c3sccc3n2)CC1` [Compound 443, N-(1-methyl-4-piperidyl)-7-[(4-pyrazol-1-ylphenyl)methyl]thieno[3,2-b]pyridine-5-carboxamide], under setting [2], the concentration giving a half-maximal response (EC50) was 1480 nM. For the same compound, where the note is “Table 2, human M1”, the maximal response (Emax) was determined as 66.6%. As for `Cn1ccc(-c2ccc(Cc3cc(C(=O)NC[C@@H]4CCOC4)nc4ccsc34)cn2)n1` [Compound 357], the 50% effective concentration (EC50) under setting [2] was found to be 458 nM. The maximal effect (Emax) (Table 2, human M1) was 86.5%. Consider `Cn1cc(-c2ccc(Cc3cc(C(=O)NC4CC(F)C4)nc4ccsc34)cn2)cn1` (centres unmarked) [Compound 346, N-(3-fluorocyclobutyl)-7-[[6-(1-methylpyrazol-4-yl)-3-pyridyl]methyl]thieno[3,2-b]pyridine-5-carboxamide], for which the EC50 under setting [2] worked out at 266 nM. For the same compound, where the note is “Table 2, human M1”, the Emax was 89.4%. On the same counts, the results for `Cn1cc(-c2ccc(Cc3cc(C(=O)N[C@H]4CCOC4)nc4ccsc34)cc2)nn1` [Compound 151, 7-[[4-(1-methyltriazol-4-yl)phenyl]methyl]-N-[(3S)-tetrahydrofuran-3-yl]thieno[3,2-b]pyridine-5-carboxamide] are 595 nM and 88.4%. As for `Cn1ccc(-c2ccc(Cc3cc(C(=O)NCC4CCOCC4)nc4ccn(C)c34)cc2)n1` [Compound 476, 1-methyl-7-[[4-(1-methylpyrazol-3-yl)phenyl]methyl]-N-(tetrahydropyran-4-ylmethyl)pyrrolo[3,2-b]pyridine-5-carboxamide], under setting [2], the concentration giving a half-maximal response (EC50) was 280 nM. The Emax (Table 2, human M1) is 83.5%. With `Cc1nc(-c2ccc(Cc3cc(C(=O)N[C@@H]4CCC[C@H]4O)nc4ccsc34)cc2)cs1` [Compound 182, N-[(1R,2R)-2-hydroxycyclopentyl]-7-[[4-(2-methylthiazol-4-yl)phenyl]methyl]thieno[3,2-b]pyridine-5-carboxamide], the EC50 under setting [2] was determined as 183 nM. Besides, the Emax (Table 2, human M1) is 84%. For the compound `CC1CC(NC(=O)c2cc(Cc3ccc(-c4cncs4)cc3)c3sccc3n2)CC(C)O1` (centres unmarked) [Compound 391, N-(2,6-dimethyltetrahydropyran-4-yl)-7-[(4-thiazol-5-ylphenyl)methyl]thieno[3,2-b]pyridine-5-carboxamide], under setting [2], the EC50 came to 1800 nM. The Emax (Table 2, human M1) turned out to be 73.4%. As to `Cc1ccc(Cc2cc(C(=O)N[C@@H]3CCOC3)nc3ccsc23)cn1` [Compound 262], under setting [2], the EC50 was greater than 10000 nM. Also, for the setting “Table 2, human M1”, the Emax was found to be 24.4%. As for `O=C(N[C@@H]1CCCC[C@H]1O)c1cc(Cc2ccc(C(F)(F)F)nc2)c2sccc2n1` [Compound 90, N-[(1R,2R)-2-hydroxycyclohexyl]-7-[[6-(trifluoromethyl)-3-pyridyl]methyl]thieno[3,2-b]pyridine-5-carboxamide], the EC50 under setting [2] was determined as 154 nM. Moreover, the Emax (Table 2, human M1) stood at 90.7%.

Take `Cn1cc(-c2ccc(Cc3cc(C(=O)N[C@@H]4CCOC4)nc4ccsc34)cn2)cn1` [Compound 344, 7-[[6-(1-methylpyrazol-4-yl)-3-pyridyl]methyl]-N-[(3R)-tetrahydrofuran-3-yl]thieno[3,2-b]pyridine-5-carboxamide]: under setting [2], the EC50 is 798 nM. The maximal effect (Emax) (Table 2, human M1) turned out to be 85.5%. With `Cc1ccc(Cc2cc(C(=O)NC34CC5CC(CC(O)(C5)C3)C4)nc3ccsc23)cn1` [Compound 63, N-(3-hydroxy-1-adamantyl)-7-[(6-methyl-3-pyridyl)methyl]thieno[3,2-b]pyridine-5-carboxamide], the concentration for a half-maximal effect (EC50) under setting [2] amounted to 3990 nM. The Emax (Table 2, human M1) turned out to be 87%. For the compound `O=C(NC12CC(C1)C2)c1cc(Cc2ccc(-c3cscn3)cc2)c2sccc2n1` [Compound 201, N-(3-bicyclo[1.1.1]pentanyl)-7-[(4-thiazol-4-ylphenyl)methyl]thieno[3,2-b]pyridine-5-carboxamide], the EC50 under setting [2] was greater than 10000 nM. Where the note is “Table 2, human M1”, the Emax turned out to be 38.5%.

For `Cc1ccc(Oc2cc(C(=O)NCC(O)C(F)(F)F)nc3ccsc23)cn1` (centres unmarked) [Compound 31, 7-[(6-methyl-3-pyridyl)oxy]-N-(3,3,3-trifluoro-2-hydroxy-propyl)thieno[3,2-b]pyridine-5-carboxamide], under setting [1], the concentration for a half-maximal effect (EC50) was greater than 10000 nM.

Turning to `Cc1csc2c(Cc3ccc(-c4ccn(C)n4)cc3)cc(C(=O)N[C@@H]3CCOC3)nc12` [Compound 305, 3-methyl-7-[[4-(1-methylpyrazol-3-yl)phenyl]methyl]-N-[(3R)-tetrahydrofuran-3-yl]thieno[3,2-b]pyridine-5-carboxamide], under setting [2], the EC50 turned out to be 2850 nM. Under “Table 2, human M1”, the Emax was found to be 76.3%.

As to `Cc1nn(C)cc1-c1ccc(Cc2cc(C(=O)NC3CN(C(C)(C)C)C3)nc3ccsc23)cc1` [Compound 245, N-(1-tert-butylazetidin-3-yl)-7-[[4-(1,3-dimethylpyrazol-4-yl)phenyl]methyl]thieno[3,2-b]pyridine-5-carboxamide], the EC50 under setting [2] was greater than 10000 nM. Also, the maximum response (Emax) (Table 2, human M1) worked out at 16.2%. Turning to `O=C(NC1CCCCC1)c1cc(Cc2ccc(-c3cscn3)cc2)c2sccc2n1` [Compound 209, N-cyclohexyl-7-[(4-thiazol-4-ylpheny)methyl]thieno[3,2-b]pyridine-5-carboxamide], the half-maximal effective concentration (EC50) under setting [2] came to 3890 nM. Further, under “Table 2, human M1”, the maximal effect (Emax) was 69.7%.
